Measurements reported in article PMC12362796, “Bilirubin Targeting WNK1 to Alleviate NLRP3‐Mediated Neuroinflammation” (Advanced Science, 2025).

Experiments:
hWNK3 = target: T1, hWNK3 (Homo sapiens, UniProt Q9BYP7); assay: MST, WNK kinase family member WNK3; type: binding
T1 construct: host or cells: HEK293T
Experimental: To validate the direct binding of bilirubin to WNK1, we performed a Microscale Thermophoresis (MST) analysis, which assesses the binding capacity of a compound by measuring the movement of proteins over a microscopic temperature gradient.^[ [26], [27] ^] We overexpressed full‐length WNK1 fused with Green Fluorescent Protein (GFP) in HEK‐293 cells, incubated the lysates with bilirubin at varying dilutions, and subjected them to precise MST measurements in capillaries. […] Furthermore, biliverdin, a structurally similar intermediate product generated before bilirubin formation, was used as a control.
All WNK1 clones were derived from the original untagged hWNK1 cDNA (NM_018979), which was modified and subcloned into the pcDNA3.1, referred to as “full‐length WNK1” throughout this study. Truncated constructs, including 1–190aa, 191–491aa, 1–491aa, and 491–2382aa fragments, were generated by PCR using the full‐length template and subsequently ligated into linearized pcDNA3.1 vectors. WNK2 was obtained from Addgene Plasmid #24569, and WNK3 was obtained from Addgene Plasmid #81723. Both were subjected to base modifications and cloned into pcDNA3.1. The WNK4 clone was derived from hWNK4 cDNA (NM_032387.5), modified, and subcloned into the pCMV3‐C‐GFPSpark vector.
In HEK293T cells, proteins tagged with green fluorescent protein (GFP) were expressed. […]

[1] = tested on: primary cultured hippocampal neurons; assay: MQAE intracellular chloride measurement in primary cultured hippocampal neurons; type: cell-based, mouse
Source text: Therefore, we hypothesized that bilirubin activation of WNK1 kinase activity might affect intracellular chloride levels. […] This was detected using the sensitive molecular probe N‐(Ethoxycarbonylmethyl)‐6‐Methoxyquinolinium Bromide (MQAE), as indicated by a reduction in MQAE fluorescence intensity (Figure 4C,E).^[ [32] ^]
To ascertain whether bilirubin regulates chloride ions through WNK1, we generated Wnk1 gene knockout primary cultured neurons. We achieved neuron‐specific deletion of Wnk1 in hippocampal neurons by transducing primary neurons isolated from Wnk1^flox/flox embryonic mice with a lentivirus expressing hSyn‐Cre‐EGFP.^[ [33], [34] ^] […] Intracellular chloride concentration is crucial for modulating inhibitory synaptic transmission and, consequently, neuronal excitability.
Since bilirubin‐induced activation of WNK1 kinase activity increases [Cl⁻]i in neurons, we sought to elucidate the downstream effector proteins of WNK1 that are involved in this process. Neuronal [Cl⁻]i is primarily regulated by the Cl⁻‐K⁺ symporter KCC2, with additional modulation by factors such as the Na⁺‐K⁺‐Cl⁻ co‐transporter NKCC1, GABAA receptors, and glycine receptors (GlyR), all of which contribute to [Cl⁻]i homeostasis.^[ [31] ^] To investigate the mechanism underlying bilirubin‐induced changes in [Cl⁻]i, we selectively targeted these proteins using pharmacological inhibitors (VU0463271 for KCC2, bumetanide for NKCC1, bicuculline for GABAA receptors, and strychnine for GlyR) and activated KCC2 using CLP257.^[ [35], [36] ^] […] The bilirubin‐induced effect on [Cl⁻]i was not observed in primary astrocytes (Figure S15A,B, Supporting Information) or the HEK 293T cell line (Figure S15C, Supporting Information), both of which lacked KCC2 expression (Figure S16A,B, Supporting Information), further confirming that the effects of bilirubin and WNK1 on [Cl⁻]i elevation are dependent on KCC2.
Intracellular chloride concentration ([Cl⁻]i) was measured using the MQAE fluorescent dye (Life Technologies) following established protocols (Zhang, Lee et al. 2015). […]

T1 sequence (Q9BYP7 whole entry): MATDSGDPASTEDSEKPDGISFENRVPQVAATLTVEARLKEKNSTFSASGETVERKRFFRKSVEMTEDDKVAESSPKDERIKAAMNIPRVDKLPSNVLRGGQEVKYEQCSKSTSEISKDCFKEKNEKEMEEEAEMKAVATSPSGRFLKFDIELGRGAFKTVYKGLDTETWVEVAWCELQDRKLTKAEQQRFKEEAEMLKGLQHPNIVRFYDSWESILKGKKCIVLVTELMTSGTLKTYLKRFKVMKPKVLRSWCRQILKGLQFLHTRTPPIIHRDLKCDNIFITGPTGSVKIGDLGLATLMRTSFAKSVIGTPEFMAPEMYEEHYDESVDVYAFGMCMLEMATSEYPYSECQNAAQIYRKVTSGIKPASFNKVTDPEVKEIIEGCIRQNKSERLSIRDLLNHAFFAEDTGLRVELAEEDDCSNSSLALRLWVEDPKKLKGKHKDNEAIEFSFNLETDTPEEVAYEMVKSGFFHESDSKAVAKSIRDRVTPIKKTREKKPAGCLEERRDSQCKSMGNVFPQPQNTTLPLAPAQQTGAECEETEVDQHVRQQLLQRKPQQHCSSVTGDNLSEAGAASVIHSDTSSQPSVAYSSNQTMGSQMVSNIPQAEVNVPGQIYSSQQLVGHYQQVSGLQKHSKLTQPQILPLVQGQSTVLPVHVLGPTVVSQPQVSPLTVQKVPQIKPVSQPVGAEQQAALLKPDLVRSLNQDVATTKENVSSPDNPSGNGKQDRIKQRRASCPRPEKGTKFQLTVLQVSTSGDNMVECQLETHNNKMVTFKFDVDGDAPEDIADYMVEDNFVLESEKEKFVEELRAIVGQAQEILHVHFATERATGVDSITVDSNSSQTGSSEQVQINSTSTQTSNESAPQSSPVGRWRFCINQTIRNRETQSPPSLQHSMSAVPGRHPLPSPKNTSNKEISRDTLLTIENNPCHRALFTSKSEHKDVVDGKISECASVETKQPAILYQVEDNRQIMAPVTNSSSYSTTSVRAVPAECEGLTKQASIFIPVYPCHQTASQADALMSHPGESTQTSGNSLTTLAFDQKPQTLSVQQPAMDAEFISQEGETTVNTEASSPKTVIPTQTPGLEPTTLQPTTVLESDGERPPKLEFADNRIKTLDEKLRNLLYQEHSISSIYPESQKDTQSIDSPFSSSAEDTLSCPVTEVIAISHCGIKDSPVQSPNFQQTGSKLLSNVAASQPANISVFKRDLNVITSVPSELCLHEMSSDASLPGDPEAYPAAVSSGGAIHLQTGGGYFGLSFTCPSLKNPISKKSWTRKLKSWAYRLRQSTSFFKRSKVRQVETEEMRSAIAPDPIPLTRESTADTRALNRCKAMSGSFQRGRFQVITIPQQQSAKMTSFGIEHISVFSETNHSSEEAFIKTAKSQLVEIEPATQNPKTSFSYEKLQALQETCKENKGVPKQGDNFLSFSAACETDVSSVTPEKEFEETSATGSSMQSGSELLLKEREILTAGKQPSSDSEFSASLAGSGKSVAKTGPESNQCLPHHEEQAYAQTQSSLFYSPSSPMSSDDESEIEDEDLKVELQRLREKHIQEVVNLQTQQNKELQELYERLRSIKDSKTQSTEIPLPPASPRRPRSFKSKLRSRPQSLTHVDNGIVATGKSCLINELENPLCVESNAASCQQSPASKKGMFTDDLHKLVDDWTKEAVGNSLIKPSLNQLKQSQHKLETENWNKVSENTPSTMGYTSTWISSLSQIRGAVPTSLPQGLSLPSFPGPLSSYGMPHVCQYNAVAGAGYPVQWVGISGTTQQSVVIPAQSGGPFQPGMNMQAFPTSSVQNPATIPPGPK

Kd (hWNK3): 760 nM
Compound: C=CC1=C(C)/C(=C/c2[nH]c(Cc3[nH]c(/C=C4\NC(=O)C(C)=C4C=C)c(C)c3CCC(=O)O)c(CCC(=O)O)c2C)NC1=O [bilirubin, Bilirubin]
[Cl−]i levels after Wnk1 deletion ([1]; Wnk1 knockout primary neurons (hSyn-Cre lentivirus)): failed to increase
intracellular chloride concentration ([1]; varying concentrations, 30 min, MQAE fluorescence): significant increase
